“Also recorded” adds a separate entry of the source.
How the values were obtained:
B lymphocytes [1] = assay: B cell growth/survival; format: cell-based; settings: synthetic isomers
T cells = assay: T cell activation/proliferation; format: cell-based, murine; settings: for activity in T cell activation relative to natural 13,14-DHR: synthetic isomers; for substitution for retinol in T cell activation: with mitogen/anti-CD3
Description: (§1) They were seeded into 96-well flat-bottom plates at varying cellular densities in a final volume of 100 μl. In control experiments, cells were cultured in medium containing 10% FCS or 3% human serum and 5×10^-5 M 2 ME. […] Cultures were carried out in duplicate. Plates were incubated at 37° C. in a humidified 5% CO2 atmosphere. Cellular proliferation was determined by [^3 H] thymidine uptake (0.5 uCi/well; New England Nuclear, Boston, Mass.) after the incubation times indicated for each experiment with a 4 hour labeling pulse. Cells were harvested onto glass filter and [^3 H]TdR incorporation was determined by liquid scintillation counting. The data presented are the means of duplicate or six replicate cultures. The restriction to duplicate measurements was necessary to conserve scarce 14HRR. […] Each experiment was repeated at least twice.

thymocytes [2] = assay: Proliferation of anti-CD3e activated thymocytes in serum-free medium; format: cell-based, BALB/c mouse
Description: FIG. 14A: Purified BALB/c thymocytes were activated with immobilized anti-CD3e antibody and cultivated for four days in ITLB medium with or without retinol (3×10^-6 M), 14HRR (6×10^-7 M) (fresh 14HRR was added every 12 hours), human serum (3%) or FCS (10%) at the cellular densities shown. Proliferation was assayed by tritiated thymidine incorporation into cellular DNA. The SDs were below 20%.
FIG. 14B: BALB/c thymocytes (10^6 /ml) were added to microtiter plates coated with titrated amounts of anti-CD3e antibody with […] retinol or without, as indicated. Proliferation was measured in hexaduplicate wells on day 3 by ^3 H thymidine incorporation assay.
FIG. 14C: BALB/c thymocytes (3×10^6 /ml) were activated with anti-CD3e mAb as FIG. 1A. The total number of viable cells was determined by counting trypan blue-excluding cells, and those of blast cells by counting viable large cells in six replicate wells. Because of the relatively low cell density required in the culture (see FIG. 14A), the numbers reported for blast cells are best estimates.
Purified thymocytes (5×10^5 cells/well) were stimulated by TCR crosslinking with immobilized anti-CD3e antibody (FIG. 15A) or 0.4 μg/ml Con A (FIG. 15B) in serum-free ITLB medium. The indicated amounts of retinoids were added either once at the beginning of the experiment (marked as "1x") or every 12 hours thereafter (marked as "6x"). DNA synthesis was measured after 72 hours by tritiated thymidine uptake as described.
Purified thymocytes (10^5 cells/well) were activated with anti-CD3 antibody in ITLB medium with or without retinol (3×10^-6 M), 14HRR (6×10^-7, added every 12 hours or human serum (3%)). DNA synthesis was measured daily by a 4 hour pulse of tritiated thymidine. SDs were ≤12%.
Thymocytes (5×10^4 /well) were activated by immobilized anti-CD3 mAb in medium ITLB. Retinol (2×10^-6 M) was added at initiation of culture, or delayed by 12 hours and 24 hours, respectively, or omitted altogether. ^3 H thymidine pulses of 4 hours were used to measure DNA synthesis of hexaduplicate wells. (SDs were 20% or less.)
Thymuses of 3 to 6-week-old BALB/c mice were teased in serum-free RPMI medium supplemented with 1% BSA, 10^-6 M linoleic acid and antibiotics. Depletion of accessory cells was achieved by two cycles of complement-dependent lysis with a mixture of anti-IA^d (5 μg/ml) and anti-Itd (1:500 diluted ascites fluid). Briefly, cells were incubated on ice for 30 minutes with Ia antibodies, spun down, resuspended in 1:40 diluted rabbit complement, and incubated at 37° C. for 45 minutes. Incubations and two subsequent washes were carried out with RPMI medium containing 1% BSA. Cell viability was evaluated by trypan blue dye exclusion. To determine the extent of depletion of accessory cells, samples were stained with FITC-conjugated anti-Fc receptor antibody and analyzed by flow cytometry on a FACScan instrument (Becton Dickinson). No FcR-bearing cells were detected by this procedure.
Cells were cultured in serum-free medium, referred to as ITLB, containing RPMI 1640 supplemented with 8×10^-7 M insulin (5 μg/ml), 7×10^-8 M transferrin (5 μg/ml), 2×10^-6 M linoleic acid, 2×10^-6 M delipidated BSA (0.12 mg/ml), 2 mM L-glutamine, 1 mM sodium pyruvate and antibiotics. They were seeded into 96-well flat-bottom plates at varying cellular densities in a final volume of 100 μl. In control experiments, cells were cultured in medium containing 10% FCS or 3% human serum and 5×10^-5 M 2 ME. T cells and thymocytes were activated with immobilized, purified anti-mab CD3e or by the addition of Con A in the presence or absence of different concentrations of retinoids. Unless indicated otherwise, retinoids were replenished every 12 hours to maintain a reasonably constant concentration of these labile compounds in culture. […]

B lymphocytes [3] = settings: previous analyses with B lymphocytes (33); cited from earlier work
[4] = test system: lymphoblastoid cells (LCL); settings: serum-free medium; cited from earlier work
thymocytes [5] = assay: Growth-stimulating effect of retinol on anti-CD3 activated thymocytes in the presence of interleukins; format: cell-based, BALB/c mouse; settings: 3 days
thymocytes [6] = assay: as above; format: cell-based, BALB/c mouse; settings: for substitution for retinol by lymphokines/cytokines: anti-CD3-activated thymocytes; for substitution for retinol by lymphokines/cytokines / CPM anti-CD3, no Retinol: no retinol; for CPM anti-CD3, no Retinol: 3 days
Description: as §1, with “Cells were cultured in serum-free medium, referred to as ITLB, containing RPMI 1640 supplemented with 8×10^-7 M insulin (5 μg/ml), 7×10^-8 M transferrin (5 μg/ml), 2×10^-6 M linoleic acid, 2×10^-6 M delipidated BSA (0.12 mg/ml), 2 mM L-glutamine, 1 mM sodium pyruvate and antibiotics. They” for “They”, “ME. T cells and thymocytes were activated with immobilized, purified anti-mab CD3e or by the addition of Con A in the presence or absence of different concentrations of retinoids. Unless indicated otherwise, retinoids were replenished every 12 hours to maintain a reasonably constant concentration of these labile compounds in culture.” for “ME.”
Proliferation of activated thymocytes in response to interleukins in presence and absence of retinol. Purified thymocytes (5×10^5 cells/well) were activated with immobilized anti-CD3 antibody in serum-free medium in the presence or absence of interleukins and retinol (3×10^-6 M). Proliferation was assayed after three days by tritiated thymidine incorporation.

Molecule | activity in supporting B cell growth relative to natural 13,14-DHR (B lymphocytes [1]) | activity in T cell activation relative to natural 13,14-DHR (T cells) | substitution for retinol in T cell activation (T cells) | CPM anti-CD3, 10^-6 M Retinol (thymocytes [5]) | substitution for retinol by lymphokines/cytokines (thymocytes [6]) | CPM anti-CD3, no Retinol (thymocytes [6]) | other results
CC1=C(/C=C/C(C)=C\C=C\[C@@](C)(O)[C@H](O)CO)C(C)(C)CCC1 [9-cis-(13R, 14R)-DHR] | same activity | same activity | – | – | – | – | –
CC1=C(/C=C/C(C)=C\C=C\[C@](C)(O)[C@H](O)CO)C(C)(C)CCC1 [9-cis-(13S, 14R)-DHR] | same activity | same activity | – | – | – | – | –
CC1=C(/C=C/C(C)=C/C=C/C(C)=C\CO)C(C)(C)CCC1 [13-cis-retinol] | – | – | can substitute for retinol | – | – | – | effectiveness relative to all-trans retinol (thymocytes [2]): equally effective as all-trans retinol
CC1=C(/C=C/C(C)=C/C=C/[C@@](C)(O)[C@H](O)CO)C(C)(C)CCC1 [all-trans (13R, 14R)-DHR] | same activity | same activity | – | – | – | – | –
CC1=C(/C=C/C(C)=C/C=C/[C@](C)(O)[C@H](O)CO)C(C)(C)CCC1 [all-trans (13S, 14R)-DHR] | same activity | same activity | – | – | – | – | –
CC1=C(/C=C/C(C)=C/C=C/C(C)=C/C=O)C(C)(C)CCC1 [all-trans retinal] | – | – | can substitute for retinol | – | – | – | concentration at which activity was demonstrated (B lymphocytes [3]): 200 nM; support of growth of LCL [4]: support the growth of LCL; effectiveness relative to all-trans retinol (thymocytes [2]): equally effective as all-trans retinol
IL-6: hrIL-6 purchased from Boehringer Mannheim | – | – | – | 130,590 ± 25,803 CPM | None and none | 1,005 ± 815 CPM | –
TNF-alpha | – | – | cannot be satisfied | 122,905 ± 11,577 CPM | none | 464 ± 95 CPM | substitution for retinol by lymphokines/cytokines (thymocytes [6]; listed as TNF-α): does not
IL-4: murine rIL-4 (protein, UniProt P07750 21-140, looked up) Interleukin-4: HIHGCDKNHLREIIGILNEVTGEGTPCTEMDVPNVLTATKNTTESELVCRASKVLRIFYLKHGKTPCLKKNSSVLMELQRLFRAFRCLDSSISCTMNESKSTSLKDFLESLKSIMQMDYS | – | – | – | 115,849 ± 20,630 CPM | None and none | 991 ± 105 CPM | –
IL-1: Human recombinant IL-1-α (protein, UniProt P01583 113-271, looked up) Interleukin-1 alpha: SAPFSFLSNVKYNFMRIIKYEFILNDALNQSIIRANDQYLTAAALHNLDEAVKFDMGAYKSSKDDAKITVILRISKTQLYVTAQDEDQPVLLKEMPEIPKTITGSETNLLFFWETHGTKNYFTSVAHPNLFIATKQDYWVCLAGGPPSITDFQILENQA | – | – | – | 118,924 ± 3,051 CPM | None and none | 959 ± 30 CPM | –
IFN-gamma: mouse recombinant IFN-gamma (protein, UniProt P01580 23-155, looked up) Interferon gamma: HGTVIESLESLNNYFNSSGIDVEEKSLFLDIWRNWQKDGDMKILQSQIISFYLRLFEVLKDNQAISNNISVIESHLITTFFSNSKAKKDAFMSIAKFEVNNPQVQRQAFNELIRVVHQLLPESSLRKRKRSRC | – | – | can substitute for retinol | 220,359 ± 27,726 CPM | can circumvent the retinol requirement and initiate durable proliferation in the absence of retinol or 14HRR | 81,876 ± 11,866 CPM | substitution for retinol by lymphokines/cytokines (thymocytes [6]; listed as interferon-gamma): can sustain thymocyte proliferation in the absence of retinol; also recorded: quite efficient in anti-CD3-mediated activation in the absence of retinol; synergy with retinol (thymocytes [6]): strong additive effects; synergy with retinol (thymocytes [6]; listed as Interferon-gamma): clear additive effect with retinol

Reference: patent publication US5908868A, “Retinol derivatives useful for enhancing immune response” (priority 1995, dated 1999)
